Target: human LPA1 (Homo sapiens, UniProt Q92633)
Assay: In vitro functional assay of lysophosphatidic acid receptor 1 activity (calcium flux)
Format: cell-based
Conditions: B103 cells stably expressing human LPA1; Fluo-4 NW calcium flux after lysophosphatidic acid (18:1) at EC80; compounds 100 pM to 10 μM; read-out: LPA1 IC50
Description: In vitro functional assay of lysophosphatidic acid receptor 1 activity
Primary compound plates were prepared in 100% DMSO (Sigma-Aldrich), secondary compound plates were prepared at 10× concentration in DiVEM (Invitrogen), and tertiary compound plates were prepared at 3x concentration in assay buffer containing HBSS (no Ca^+2/Mg^+2, Invitrogen) and 0.1% BSA (Sigma-Aldrich). Fluo-4 NW calcium assay dye (Invitrogen) was prepared as per manufacturer's recommendations in assay buffer. B103 cells stably expressing human LPA1(J. Chun lab, UCSD) were grown to confluency in DMEM media (Invitrogen) containing 10% FBS (ATCC), […] (Sigma-Aldrich) and […] Geneticin (Sigma-Aldrich), and detached with Accutase (Sigma-Aldrich) prior to assay. The freshly detached cells were resuspended in growth media and plated in black, clear-bottom 96-well plates (Costar) containing compound (i.e., secondary compound plate) at a density of 5×10^4 cells/well. Once plated, cells were left at room temperature for 30 minutes and then transferred to a 37° C., […] incubator for 24 hours. After 24 hours, the growth media was then removed and freshly prepared Fluo-4 NW calcium assay dye was added to cells. Compounds (i.e. tertiary compound plates) were then added back to the dye/cells, returned to the incubator for 30 minutes, and then kept at room temperature for an additional 30 minutes. Finally, lysophosphatidic acid (18:1) at the EC80 concentration was added and calcium flux measured using FlexStation 3 (Molecular Devices). Sigmoidal dose-response curves were generated by measuring […] over 45 sec and calculating the area under the curve. Dose response curves and IC50 values were generated using Prism (GraphPad). Compounds were tested at a final concentration range of 100 pM to 10 μM in 0.10% DMSO.

Chain of human LPA1 (Q92633 whole entry): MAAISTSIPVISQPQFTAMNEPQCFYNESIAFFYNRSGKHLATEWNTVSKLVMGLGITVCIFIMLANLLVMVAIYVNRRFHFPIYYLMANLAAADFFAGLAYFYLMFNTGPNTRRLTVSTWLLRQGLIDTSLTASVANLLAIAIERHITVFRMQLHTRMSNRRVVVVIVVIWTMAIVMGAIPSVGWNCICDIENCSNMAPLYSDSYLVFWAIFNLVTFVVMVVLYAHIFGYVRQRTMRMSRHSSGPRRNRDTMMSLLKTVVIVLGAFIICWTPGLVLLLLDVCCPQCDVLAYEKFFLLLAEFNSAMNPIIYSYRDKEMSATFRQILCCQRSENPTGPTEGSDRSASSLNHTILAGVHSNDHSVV

| SMILES | IC50 [nM] |
| --- | --- |
| Cc1ccc(NC(=O)C2(c3ccccc3C(C)C)CC(C)(O)C2)c(OC(F)F)n1 (single isomer, unassigned) [Example 51-isomer B, N-(2-(difluoromethoxy)-6-methylpyridin-3-yl)-3-hydroxy-1-(2-isopropylphenyl)-3-methylcyclobutane-1-carboxamide] | 100 to 1000 |
| COc1ccc(NC(=O)C2(c3ccccc3C(C)C)CCC(C)(O)CC2)c(OC(F)F)n1 (single isomer, unassigned) [Example 83-isomer A, N-(2-(difluoromethoxy)-6-methoxypyridin-3-yl)-4-hydroxy-1-(2-isopropylphenyl)-4-methylcyclohexane-1-carboxamide] | > 1000 |
| CC(C)c1ccccc1C1(C(=O)Nc2ccc(Cl)cn2)CC(O)(C(F)(F)C(=O)O)C1 (single isomer, unassigned) [Example 93-isomer B, 2-(3-((5-chloropyridin-2-y1)carbamoyl)-1-hydroxy-3-(2-isopropylphenyl)cyclobutyl)-2,2-difluoroacetic acid] | 100 to 1000 |
| Cc1cc(OC(F)F)c(NC(=O)C2(c3ccccc3C(C)C)CC(O)(C(F)(F)C(=O)O)C2)cn1 (single isomer, unassigned) [Example 94-isomer A, 2-(3-((4-(difluoromethoxy)-6-methylpyridin-3-yl)carbamoyl)-1-hydroxy-3-(2-isopropylphenyl)cyclobutyl)-2,2-difluoroacetic acid] | 100 to 1000 |
| COc1cc(C)ccc1NC(=O)C1(c2ccccc2C(C)C)CNC(=O)C1 (single isomer, unassigned) [Example 102-isomer B, 3-(2-isopropylphenyl)-N-(2-methoxy-4-methylphenyl)-5-oxopyrrolidine-3-carboxamide] | > 1000 |
| CC(C)c1ccccc1C1(C(=O)Nc2cccnc2OC(F)F)CC(=O)N(C)C1 (centres unmarked) [Example 2, N-(2-(difluoromethoxy)pyridin-3-yl)-3-(2-isopropylphenyl)-1-methyl-5-oxopyrrolidine-3-carboxamide] | 100 to 1000 |
| CC(C)c1ccccc1C1(C(=O)Nc2cnc(C(F)F)cc2OC(F)F)CC(=O)N(C)C1 (centres unmarked) [Example 4, N-(4-(difluoromethoxy)-6-(difluoromethyl)pyridin-3-yl)-3-(2-isopropylphenyl)-1-methyl-5-oxopyrrolidine-3-carboxamide] | 100 to 1000 |
| COc1cc(OC(F)F)c(NC(=O)C2(c3ccccc3C(C)C)CC(=O)N(C)C2)cn1 (centres unmarked) [Example 5, N-(4-(difluoromethoxy)-6-methoxypyridin-3-yl)-3-(2-isopropylphenyl)-1-methyl-5-oxopyrrolidine-3-carboxamide] | > 1000 |
| Cc1cc(OC(F)F)c(NC(=O)C2(c3ccccc3C(C)C)CC(=O)N(C)C2)cn1 (centres unmarked) [Example 6, N-(4-(difluoromethoxy)-6-methylpyridin-3-yl)-3-(2-isopropylphenyl)-1-methyl-5-oxopyrrolidine-3-carboxamide] | 100 to 1000 |
| CC(C)c1ccccc1C1(C(=O)Nc2ncc(Cl)cc2OC(F)F)CNC(=O)C1 (centres unmarked) [Example 10, N-(5-chloro-3-(difluoromethoxy)pyridin-2-yl)-3-(2-isopropylphenyl)-5-oxopyrrolidine-3-carboxamide] | 10 to 100 |
| CCOCN1CC(C(=O)Nc2ncc(Cl)cc2OC(F)F)(c2ccccc2C(C)C)CC1=O (centres unmarked) [Example 11, N-(5-chloro-3-(difluoromethoxy)pyridin-2-yl)-1-(ethoxymethyl)-3-(2-isopropylphenyl)-5-oxopyrrolidine-3-carboxamide] | 100 to 1000 |
| COc1nc(NC(=O)C2(c3ccccc3C(C)C)CNC(=O)C2)c(OC(F)F)cc1Cl (centres unmarked) [Example 12, N-(5-chloro-3-(difluoromethoxy)-6-methoxypyridin-2-yl)-3-(2-isopropylphenyl)-5-oxopyrrolidine-3-carboxamide] | > 1000 |
| Cc1ccc(NC(=O)C2(c3ccccc3C(C)C)CCOCC2)c(OC(F)F)n1 [Example 13, N-(2-(difluoromethoxy)-6-methylpyridin-3-yl)-4-(2-isopropylphenyl)tetrahydro-2H-pyran-4-carboxamide] | 10 to 100 |
| CC(C)c1ccccc1C1(C(=O)Nc2ccc(Cl)cc2OC(F)F)CCOCC1 [Example 14, N-(4-chloro-2-(difluoromethoxy)phenyl)-4-(2-isopropylphenyl)tetrahydro-2H-pyran-4-carboxamide] | 100 to 1000 |
| Cc1ccc(NC(=O)C2(c3ccccc3C(C)C)COC2)c(OC(F)F)n1 [Example 17, N-(2-(difluoromethoxy)-6-methylpyridin-3-yl)-3-(2-isopropylphenyl)oxetane-3-carboxamide] | 10 to 100 |
| COc1ccc(NC(=O)C2(c3ccccc3C(C)C)COC2)c(OC)n1 [Example 18, N-(2,6-dimethoxypyridin-3-yl)-3-(2-isopropylphenyl)oxetane-3-carboxamide] | 100 to 1000 |
| COc1cc(Cl)ncc1NC(=O)C1(c2ccccc2C(C)C)COC1 [Example 19, N-(6-chloro-4-methoxypyridin-3-yl)-3-(2-isopropylphenyl)oxetane-3-carboxamide] | 10 to 100 |

Further lines, results first:

| IC50 [nM] | SMILES |
| --- | --- |
| < 10 | COc1ccc(NC(=O)C2(c3ccccc3C(C)C)CC(O)(C(F)(F)C(=O)O)C2)c(OC(F)F)n1 (single isomer, unassigned) [Example 54-isomer A, 2-(3-((2-(difluoromethoxy)-6-methoxypyridin-3-yl)carbamoyl)-1-hydroxy-3-(2-isopropylphenyl)cyclobutyl)-2,2-difluoroacetic acid] |
| 10 to 100 | COc1ccc(NC(=O)C2(c3ccccc3C(C)C)CC(O)(C(F)(F)C(=O)O)C2)c(OC(F)F)n1 (single isomer, unassigned) [Example 54-isomer B, 2-(3-((2-(difluoromethoxy)-6-methoxypyridin-3-yl)carbamoyl)-1-hydroxy-3-(2-isopropylphenyl)cyclobutyl)-2,2-difluoroacetic acid] |
| 10 to 100 | CC(C)c1ccccc1C1(C(=O)Nc2ncc(Cl)cc2OC(F)F)CC(O)(C(F)(F)C(=O)O)C1 (single isomer, unassigned) [Example 55-isomer A, 2-(3-((5-chloro-3-(difluoromethoxy)pyridin-2-yl)carbamoyl)-1-hydroxy-3-(2-isopropylphenyl)cyclobutyl)-2,2-difluoroacetic acid] |
| 10 to 100 | CC(C)c1ccccc1C1(C(=O)Nc2ncc(Cl)cc2OC(F)F)CC(O)(C(F)(F)C(=O)O)C1 (single isomer, unassigned) [Example 55-isomer B, 2-(3-((5-chloro-3-(difluoromethoxy)pyridin-2-yl)carbamoyl)-1-hydroxy-3-(2-isopropylphenyl)cyclobutyl)-2,2-difluoroacetic acid] |
| 10 to 100 | COc1ccc(NC(=O)C2(c3ccccc3C(C)C)CCC(C)(O)CC2)c(OC(F)F)n1 (single isomer, unassigned) [Example 83-isomer B, N-(2-(difluoromethoxy)-6-methoxypyridin-3-yl)-4-hydroxy-1-(2-isopropylphenyl)-4-methylcyclohexane-1-carboxamide] |
| 10 to 100 | CC(C)c1ccccc1C1(C(=O)Nc2ccc(Cl)cn2)CC(O)(C(F)(F)C(=O)O)C1 (single isomer, unassigned) [Example 93-isomer A, 2-(3-((5-chloropyridin-2-yl)carbamoyl)-1-hydroxy-3-(2-isopropylphenyl)cyclobutyl)-2,2-difluoroacetic acid] |
| 10 to 100 | Cc1cc(OC(F)F)c(NC(=O)C2(c3ccccc3C(C)C)CC(O)(C(F)(F)C(=O)O)C2)cn1 (single isomer, unassigned) [Example 94-isomer B, 2-(3-((4-(difluoromethoxy)-6-methylpyridin-3-yl)carbamoyl)-1-hydroxy-3-(2-isopropylphenyl)cyclobutyl)-2,2-difluoroacetic acid] |
| 10 to 100 | COc1cc(C)ccc1NC(=O)C1(c2ccccc2C(C)C)CNC(=O)C1 (single isomer, unassigned) [Example 102-isomer A, 3-(2-isopropylphenyl)-N-(2-methoxy-4-methylphenyl)-5-oxopyrrolidine-3-carboxamide] |
| 10 to 100 | Cc1ccc(NC(=O)C2(c3ccccc3C(C)C)CC(=O)N(C)C2)c(OC(F)F)n1 (centres unmarked) [Example 3, N-(2-(difluoromethoxy)-6-methylpyridin-3-yl)-3-(2-isopropylphenyl)-1-methyl-5-oxopyrrolidine-3-carboxamide] |
| 10 to 100 | Cc1ccc(NC(=O)C2(c3ccccc3C(C)C)CNC(=O)C2)c(OC(F)F)n1 (centres unmarked) [Example 9, N-(2-(difluoromethoxy)-6-methylpyridin-3-yl)-3-(2-isopropylphenyl)-5-oxopyrrolidine-3-carboxamide] |
| < 10 | COc1ccc(NC(=O)C2(c3ccccc3C(C)C)COC2)c(OC(F)F)n1 [Example 15, N-(2-(difluoromethoxy)-6-methoxypyridin-3-yl)-3-(2-isopropylphenyl)oxetane-3-carboxamide] |
| < 10 | CC(C)c1ccccc1C1(C(=O)Nc2ccc(Br)cc2OC(F)F)COC1 [Example 16, N-(4-bromo-2-(difluoromethoxy)phenyl)-3-(2-isopropylphenyl)oxetane-3-carboxamide] |

— patent publication US20250179045A1, “LPAR1 ANTAGONISTS AND USES THEREOF” (Contineum Therapeutics, Inc., priority 2021, published 2025)
